Tested on: Meloidogyne sp.
Experiment: Determination of the nematocidal activity against Meloidogyne sp. (potted tomato, greenhouse)
Format: in vivo
Conditions: for PLANT DEVELOPMENT (fresh weight g) / INFESTED ROOT % / GALL INDEX (scale 0-10) / reduction in parasitosis at the root level (in words): tomatoes, cv Marmande; for PLANT DEVELOPMENT (fresh weight g) / INFESTED ROOT % / GALL INDEX (scale 0-10): dose 4,000 g/hectare, survey 30 days after transplantation; for PLANT DEVELOPMENT (fresh weight g): infested blank 13; for INFESTED ROOT %: infested blank 70; for GALL INDEX (scale 0-10): Bridge-Page scale, 0 = 0% of root affected, 10 = 100% infested root, infested blank 7; for reduction in parasitosis at the root level (in words): 4,000 g/hectare, 30 days, comment on Table 6
Experimental: The tests aimed at testing the nematocidal activity of the product under examination are carried out using inocula taken from a cultivation of Meloidogyne sp. maintained on potted tomato and cucumber plants and grown in a greenhouse.
In order to carry out the experiments, portions of roots having a large number of galls and soil are taken from the infested pots, in which larvae are present starting from the second stage of age.
New pots having a diameter of 15 cm are half-filled with sterile earth. The portions of infested roots, previously cleaned, are placed on it to be able to correctly assess the degree of infestation and ensure that each pot contains the same nematic charge. 200-300 g of infested soil are then added, which are covered with a thin layer of sterile earth.
The treatment is carried out by pouring 100 ml of hydroacetonic solution onto the surface of the soil in which the product to be tested has been dissolved to obtain a concentration ranging from 70 to 100 ppm.
Tomato or cucumber seedlings at the stage of two or three actual leaves are transplanted in the pots thus prepared, after one or seven days from the application. Different cultivars of tomatoes (Microtom, Marmande) or cucumbers (Lungo della Cina) are used, having a different sensitivity to the parasite and different times of growth. In particular, for estimating the final production, a variety of ornamental tomatoes (cv Microtom) is used, whose seedlings are small in size and able to reach the maturity of the fruit in about two months in pots and under greenhouse conditions.
The containment capacity of the parasite is detected, 30 and 60 days after the transplantation, considering the development of the plant (whose fresh weight is detected) and the presence of galls on the roots.
This is estimated using both the infestation scale proposed by Bridge-Page (Tropical Pest Management 26 (3): 296-298, September 1980), according to which the value zero corresponds to 0% of root affected and the value 10 corresponds to 100% of infested root, and also considering the percentage of root mass affected.
Table 6 indicates the results relating to the effectiveness of Compounds Nr.

SMILES: Cn1c(=O)c2c(ncn2C)n(C)c1=O [Caffeine, caffeine, reference compound]
- nematocidal activity of caffeine as verified by the Applicant (in words) (attack of the parasite and formation of galls on the root system, conditions not given): unsatisfactory from the point of view of nematocidal activity
- PLANT DEVELOPMENT (fresh weight g): 12 g
- INFESTED ROOT %: 70%

SMILES: Cn1c(=O)c2c(ncn2CC[S+]([O-])CCC(F)=C(F)F)n(C)c1=O (centres unmarked) [Comp. Nr. 8, 1,3-dimethyl-7-[2-(3,4,4-trifluorobut-3-ene-1-sulfinyl)ethyl]-3,7-dihydro-1H-purin-2,6-dione]
- GALL INDEX (scale 0-10): 5
- PLANT DEVELOPMENT (fresh weight g): 17 g
- INFESTED ROOT %: 50%

SMILES: Cn1c(=O)c2c(ncn2CCS(=O)(=O)CCC(F)=C(F)F)n(C)c1=O [Comp. Nr. 11, 1,3-dimethyl-7-[2-(3,4,4-trifluorobut-3-ene-1-sulfonyl)ethyl]-3,7-dihydro-1H-purin-2,6-dione]
- reduction in parasitosis at the root level (in words): decisive reduction in parasitosis at the root level
- GALL INDEX (scale 0-10): 4.5
- PLANT DEVELOPMENT (fresh weight g): 16 g
- INFESTED ROOT %: 45%

SMILES: Cn1c(=O)c2c(ncn2CC(=O)OCCC(F)=C(F)F)n(C)c1=O [Comp. Nr. 21, 3,4,4-trifluorobut-3-en-1-yl (1,3-dimethyl-2,6-dioxo-1,2,3,6-tetrahydro-7H-purin-7-yl) acetate]
- reduction in parasitosis at the root level (in words): decisive reduction in parasitosis at the root level
- GALL INDEX (scale 0-10): 2
- PLANT DEVELOPMENT (fresh weight g): 20 g
- INFESTED ROOT %: 20%

Source: patent US20220104495A1, “THEOPHYLLINE DERIVATIVES WITH NEMATOCIDAL ACTIVITY, THEIR AGRONOMIC COMPOSITIONS AND RELATIVE USE” (ISAGRO S.p.A., priority 2019, published 2022)
